# Measured values as given in patent publication US9920063B2, “Melampomagnolide B derivatives” (Board of Trustees of the University of Arkansas, priority 2013, dated 2018).
# Read-outs that look alike come from different tables or passages of the source.
# Key:
# COLO 205 = experiment: NCI human tumor cell line panel, Colon Cancer; type: cell-based
smiles,measurement,setting,value
C=C1C(=O)O[C@H]2[C@H]1CC/C(COC(=O)c1cc3ccccc3[nH]1)=C\CC[C@@]1(C)O[C@@H]21 [BS-1-28],CC50,SNB-19,7.33 µM
same,Percent Growth,"SNB-19; SNB-19, Log10 Concentration −4.0",−64%
same,Percent Growth,"SNB-19; SNB-19, Log10 Concentration −5.0",−70%
same,Percent Growth,"SNB-19; SNB-19, Log10 Concentration −6.0",81%
same,Percent Growth,"SNB-19; SNB-19, Log10 Concentration −7.0",92%
same,Percent Growth,"SNB-19; SNB-19, Log10 Concentration −8.0",57%
same,GI50,"SNB-19; SNB-19, NCI five dose",1.6 µM
same,TGI,"SNB-19; SNB-19, NCI five dose",3.93E−6
same,CC50,HCT-15,2.43 µM
same,Percent Growth,"HCT-15; HCT-15, Log10 Concentration −4.0",−82%
same,Percent Growth,"HCT-15; HCT-15, Log10 Concentration −5.0",−64%
same,Percent Growth,"HCT-15; HCT-15, Log10 Concentration −6.0",−41%
same,Percent Growth,"HCT-15; HCT-15, Log10 Concentration −7.0",94%
same,Percent Growth,"HCT-15; HCT-15, Log10 Concentration −8.0",93%
same,GI50,"HCT-15; HCT-15, NCI five dose",0.211 µM
same,TGI,"HCT-15; HCT-15, NCI five dose",4.95E−7
same,CC50,UACC-62,6.98 µM
same,Percent Growth,"UACC-62; UACC-62, Log10 Concentration −4.0",−15%
same,Percent Growth,"UACC-62; UACC-62, Log10 Concentration −5.0",−73%
same,Percent Growth,"UACC-62; UACC-62, Log10 Concentration −6.0",75%
same,Percent Growth,"UACC-62; UACC-62, Log10 Concentration −7.0",91%
same,Percent Growth,"UACC-62; UACC-62, Log10 Concentration −8.0",97%
same,GI50,"UACC-62; UACC-62, NCI five dose",1.47 µM
same,TGI,"UACC-62; UACC-62, NCI five dose",3.21E−6
same,CC50,MOLT-4,> 100 µM
same,Percent Growth,"MOLT-4; MOLT-4, Log10 Concentration −4.0",−32%
same,Percent Growth,"MOLT-4; MOLT-4, Log10 Concentration −5.0",−3%
same,Percent Growth,"MOLT-4; MOLT-4, Log10 Concentration −6.0",62%
same,Percent Growth,"MOLT-4; MOLT-4, Log10 Concentration −7.0",103%
same,Percent Growth,"MOLT-4; MOLT-4, Log10 Concentration −8.0",105%
same,GI50,"MOLT-4; MOLT-4, NCI five dose",1.51 µM
same,TGI,"MOLT-4; MOLT-4, NCI five dose",8.89E−6
same,CC50,RPMI-8226,> 100 µM
same,Percent Growth,"RPMI-8226; RPMI-8226, Log10 Concentration −4.0",−34%
same,Percent Growth,"RPMI-8226; RPMI-8226, Log10 Concentration −5.0",−26%
same,Percent Growth,"RPMI-8226; RPMI-8226, Log10 Concentration −6.0",−8%
same,Percent Growth,"RPMI-8226; RPMI-8226, Log10 Concentration −7.0",92%
same,Percent Growth,"RPMI-8226; RPMI-8226, Log10 Concentration −8.0",97%
same,GI50,"RPMI-8226; RPMI-8226, NCI five dose",0.264 µM
same,TGI,"RPMI-8226; RPMI-8226, NCI five dose",8.27E−7
same,CC50,UACC-257,6.98 µM
same,Percent Growth,"UACC-257; UACC-257, Log10 Concentration −4.0",−78%
same,Percent Growth,"UACC-257; UACC-257, Log10 Concentration −5.0",−75%
same,Percent Growth,"UACC-257; UACC-257, Log10 Concentration −6.0",53%
same,Percent Growth,"UACC-257; UACC-257, Log10 Concentration −7.0",93%
same,Percent Growth,"UACC-257; UACC-257, Log10 Concentration −8.0",98%
same,GI50,"UACC-257; UACC-257, NCI five dose",1.61 µM
same,TGI,"UACC-257; UACC-257, NCI five dose",3.36E−6
same,CC50,BT-549,2.64 µM
same,Percent Growth,"BT-549; BT-549, Log10 Concentration −4.0",−99%
same,Percent Growth,"BT-549; BT-549, Log10 Concentration −5.0",−88%
same,Percent Growth,"BT-549; BT-549, Log10 Concentration −6.0",−22%
same,Percent Growth,"BT-549; BT-549, Log10 Concentration −7.0",14%
same,Percent Growth,"BT-549; BT-549, Log10 Concentration −8.0",−30%
same,GI50,"BT-549; BT-549, NCI five dose",< 0.01 µM
same,GI50,BT-549; BT-549 breast cancer cell line,< 0.01 µM
same,CC50,OVCAR-3,2.66 µM
same,Percent Growth,"OVCAR-3; OVCAR-3, Log10 Concentration −4.0",−95%
same,Percent Growth,"OVCAR-3; OVCAR-3, Log10 Concentration −5.0",−92%
same,Percent Growth,"OVCAR-3; OVCAR-3, Log10 Concentration −6.0",−15%
same,Percent Growth,"OVCAR-3; OVCAR-3, Log10 Concentration −7.0",50%
same,Percent Growth,"OVCAR-3; OVCAR-3, Log10 Concentration −8.0",19%
same,TGI,"OVCAR-3; OVCAR-3, NCI five dose",5.92E−7
same,Percent Growth,COLO 205; Log10 Concentration −4.0,−63%
same,Percent Growth,COLO 205; Log10 Concentration −5.0,−61%
same,Percent Growth,COLO 205; Log10 Concentration −6.0,39%
same,Percent Growth,COLO 205; Log10 Concentration −7.0,60%
same,Percent Growth,COLO 205; Log10 Concentration −8.0,27%
same,TGI,COLO 205; NCI five dose,2.44E−6
same,CC50,786-0,9.01 µM
same,Percent Growth,"786-0; 786-0, Log10 Concentration −4.0",−94%
same,Percent Growth,"786-0; 786-0, Log10 Concentration −5.0",−90%
same,Percent Growth,"786-0; 786-0, Log10 Concentration −6.0",11%
same,Percent Growth,"786-0; 786-0, Log10 Concentration −7.0",102%
same,Percent Growth,"786-0; 786-0, Log10 Concentration −8.0",96%
same,GI50,"786-0; 786-0, NCI five dose",0.371 µM
same,TGI,"786-0; 786-0, NCI five dose",1.28E−6
same,CC50,SR,> 100 µM
same,Percent Growth,"SR; SR, Log10 Concentration −4.0",−39%
same,Percent Growth,"SR; SR, Log10 Concentration −5.0",−28%
same,Percent Growth,"SR; SR, Log10 Concentration −6.0",53%
same,Percent Growth,"SR; SR, Log10 Concentration −7.0",98%
same,Percent Growth,"SR; SR, Log10 Concentration −8.0",162%
same,GI50,"SR; SR, NCI five dose",1.08 µM
same,TGI,"SR; SR, NCI five dose",4.51E−6
same,CC50,MDA-MB-468,5.17 µM
same,Percent Growth,"MDA-MB-468; MDA-MB-468, Log10 Concentration −4.0",−52%
same,Percent Growth,"MDA-MB-468; MDA-MB-468, Log10 Concentration −5.0",−71%
same,Percent Growth,"MDA-MB-468; MDA-MB-468, Log10 Concentration −6.0",3%
same,Percent Growth,"MDA-MB-468; MDA-MB-468, Log10 Concentration −7.0",95%
same,Percent Growth,"MDA-MB-468; MDA-MB-468, Log10 Concentration −8.0",76%
same,GI50,"MDA-MB-468; MDA-MB-468, NCI five dose",0.307 µM
same,TGI,"MDA-MB-468; MDA-MB-468, NCI five dose",1.10E−6
same,CC50,NCI-H522,6.72 µM
same,Percent Growth,"NCI-H522; NCI-H522, Log10 Concentration −4.0",−72%
same,Percent Growth,"NCI-H522; NCI-H522, Log10 Concentration −5.0",−69%
same,Percent Growth,"NCI-H522; NCI-H522, Log10 Concentration −6.0",43%
same,Percent Growth,"NCI-H522; NCI-H522, Log10 Concentration −7.0",104%
same,Percent Growth,"NCI-H522; NCI-H522, Log10 Concentration −8.0",83%
same,GI50,"NCI-H522; NCI-H522, NCI five dose",0.757 µM
same,TGI,"NCI-H522; NCI-H522, NCI five dose",2.40E−6
same,CC50,UO-31,5 µM
same,Percent Growth,"UO-31; UO-31, Log10 Concentration −4.0",−89%
same,Percent Growth,"UO-31; UO-31, Log10 Concentration −5.0",−92%
same,Percent Growth,"UO-31; UO-31, Log10 Concentration −6.0",49%
same,Percent Growth,"UO-31; UO-31, Log10 Concentration −7.0",74%
same,Percent Growth,"UO-31; UO-31, Log10 Concentration −8.0",72%
same,GI50,"UO-31; UO-31, NCI five dose",0.887 µM
same,TGI,"UO-31; UO-31, NCI five dose",2.21E−6
same,CC50,M14,5.76 µM
same,Percent Growth,"M14; M14, Log10 Concentration −4.0",−92%
same,Percent Growth,"M14; M14, Log10 Concentration −5.0",−80%
same,Percent Growth,"M14; M14, Log10 Concentration −6.0",46%
same,Percent Growth,"M14; M14, Log10 Concentration −7.0",87%
same,Percent Growth,"M14; M14, Log10 Concentration −8.0",88%
same,GI50,"M14; M14, NCI five dose",0.814 µM
same,TGI,"M14; M14, NCI five dose",2.32E−6
same,CC50,OVCAR-8,64.6 µM
same,Percent Growth,"OVCAR-8; OVCAR-8, Log10 Concentration −4.0",−63%
same,Percent Growth,"OVCAR-8; OVCAR-8, Log10 Concentration −5.0",5%
same,Percent Growth,"OVCAR-8; OVCAR-8, Log10 Concentration −6.0",69%
same,Percent Growth,"OVCAR-8; OVCAR-8, Log10 Concentration −7.0",63%
same,Percent Growth,"OVCAR-8; OVCAR-8, Log10 Concentration −8.0",58%
same,GI50,"OVCAR-8; OVCAR-8, NCI five dose",1.99 µM
same,TGI,"OVCAR-8; OVCAR-8, NCI five dose",1.19E−4
same,CC50,A498,5.63 µM
same,Percent Growth,"A498; A498, Log10 Concentration −4.0",−95%
same,Percent Growth,"A498; A498, Log10 Concentration −5.0",−99%
same,Percent Growth,"A498; A498, Log10 Concentration −6.0",97%
same,Percent Growth,"A498; A498, Log10 Concentration −7.0",102%
same,Percent Growth,"A498; A498, Log10 Concentration −8.0",110%
same,GI50,"A498; A498, NCI five dose",1.74 µM
same,TGI,"A498; A498, NCI five dose",3.43E−6
same,CC50,SK-MEL-28,5.74 µM
same,Percent Growth,"SK-MEL-28; SK-MEL-28, Log10 Concentration −4.0",−93%
same,Percent Growth,"SK-MEL-28; SK-MEL-28, Log10 Concentration −5.0",47%
same,Percent Growth,"SK-MEL-28; SK-MEL-28, Log10 Concentration −6.0",67%
same,Percent Growth,"SK-MEL-28; SK-MEL-28, Log10 Concentration −7.0",101%
same,Percent Growth,"SK-MEL-28; SK-MEL-28, Log10 Concentration −8.0",90%
same,GI50,"SK-MEL-28; SK-MEL-28, NCI five dose",1.28 µM
same,TGI,"SK-MEL-28; SK-MEL-28, NCI five dose",2.72E−6
